Legend:
S. gordonii DL1 [1] = test: Flow cytometric analysis of iSRCR adherence to bacteria; format: cell-based; settings: 10 μM, compared with S. mutans
Procedure: (§1) S. mutans UA159 and S. gordonii DL1 cells were grown overnight in TSY broth media at 37° C. and washed thoroughly with FACS buffer (20 mM HEPES pH 7.4, 150 mM NaCl and 5% non-fat dry milk) to reduce non-specific binding. Subsequently, 10 μM of iSRCR1 or iSRCR123 were added to 100 μl of cells (1×10^7 cells/ml) in binding buffer (FACS buffer+2.5 mM CaCl2) and incubated for 60 min at 37° C. The cells were later washed thoroughly with binding buffer to remove unbound iSRCRs. Subsequently, Anti-His tag Alexafluor 488 antibody (1:50 dilution) (EMD Millipore, Inc) that adheres to the His tag present on SRCRs was added to the cells and incubated for 30 min, washed three times and resuspended in 200 μl of binding buffer. Samples without iSRCRs served as control. Samples were then assayed using the FACScan machine (BD Biosciences) at the Analytical and Preparative Cytometry Facility (APCF) at UAB, and data obtained was analyzed using FlowJo 7.2.4 software.

S. mutans UA159 [2] = test: as above; format: cell-based; settings: 10 μM
Procedure: as §1

S. mutans UA159 [3] = test: Confocal microscopy of iSRCR adherence to bacteria; format: cell-based; settings: 10 μM
Procedure: S. mutans UA159 and S. gordonii DL1 were grown overnight in TSY (30 g/L of Trypticase soy broth and 0.5 g/L yeast extract, pH 7.2) media on an eight-well Lab Tek Chamber slide system (Sigma). The cells were fixed with 3% paraformaldehyde, washed with binding buffer (20 mM HEPES pH 7.4, 150 mM NaCl and 2.5 mM CaCl2), and thereafter iSRCR1 or iSRCR123 (10 μM) were added to the cells and incubated for 60 min. The unbound SRCRs were removed by repeated washing using the binding buffer. Subsequently, Alexa fluor 488 conjugated Anti-His-tag antibody (EMD Millipore, Inc) (1:50 dilution) that can bind to the His Tag on SRCRs was added. After 60 min incubation the unbound antibody was washed away thoroughly using binding buffer, and the chamber walls were gently removed. Cover slips were then mounted with 15 μl of fluoromount-G with DAPI (Southern Biotech Inc) to stain bacterial nuclei and were sealed until ready to be imaged. The experiment without SRCRs served as control. All slides were imaged using Leica SP1 UV Confocal Laser Scanning Microscope and Zeiss LSM 710 Confocal Laser Scanning Microscope at the UAB-High resolution imaging facility (UAB-HRIF).

S. gordonii DL1 [4] = test: Aggregation assay (OD700 over 60 min); format: cell-based; settings: iSRCR 10 μM or SAG, 6 mM CaCl2
Procedure: (§2) Aggregation assays were performed as described earlier with slight modifications. Briefly, S. mutans UA159 and S. gordonii DL1 cells were grown in TSY broth media overnight at 37° C. in the presence of 5% CO2. The bacteria were centrifuged at 5000×g and washed with a buffer containing 20 mM HEPES pH 7.4, 150 mM NaCl and re-suspended to an approximate OD700 of 1. The bacterial suspension (900 μl) was mixed with 100 μl of SAG or iSRCR1 (10 μM) or iSRCR123 ([…]) or commercially synthesized (Think Peptides, Inc) SRCRP2 peptide with fluorescein amidite (FAM) at the carboxyl end ([…]-[FAM]) (SEQ ID NO:9, at both 400 μg/ml and 1 mg/ml) in the presence of 6 mM CaCl2 and aggregation was measured by recording OD700over 60 min at 5 min intervals, where the buffer alone was used as control. All experiments were carried out at least five times, and the results were analyzed with One-way ANOVA. Post-hoc testing where *, P<0.05 was considered statistically significant and results were presented as the percentage of cells aggregated.

S. mutans UA159 [5] = test: Aggregation assay (OD700 over 60 min); format: cell-based; settings: iSRCR 10 μM or SAG, 6 mM CaCl2
Procedure: as §2

[6] = Differential scanning calorimetry, thermostability of SRCRs with calcium; format: physicochemical; settings: no added CaCl2
Procedure: The thermostability of SRCRs in the presence of calcium ions was analyzed using Microcal MC-II differential scanning calorimeter (GE HealthCare, USA) as described earlier. Briefly, iSRCR1 or iSRCR123 at concentration of 1 mg/ml was mixed and incubated with different concentration of CaCl2 ranging from (0-100 mM) to final volume of 400 μl of buffer containing 20 mM HEPES, 150 mM NaCl), and buffer without SRCRs served as control. Data were recorded with calorimetric scanning rates that ranged from 30° C./h to 90° C./hat 30 psi pressure. The data collected was analyzed for the unfolding temperature (Tt), and the calorimetric (ΔHcal) and van't Hoff (ΔHv) unfolding enthalpies using the Origin software package (MicroCal).

For “iSRCR1: recombinant single SRCR domain construct of Gp340 (15 kDa), Drosophila expression system”, which “adherence by FACS (in words)” value (S. gordonii DL1 [1]) is on record?
The value was “lower adherence”.

What about the “increase in fluorescence intensity compared to the control” value (S. mutans UA159 [2]) of the same substance?
Its value is 10 fold.

And the “binding to cells by confocal microscopy (in words)” value (S. mutans UA159 [3])?
Its value is “binding”.

And the “percentage of cells aggregated” value (S. gordonii DL1 [4])?
Its value is 13%.

And the “percentage of cells aggregated” value (S. mutans UA159 [5])?
Its value is 17%.

What about the Tm [6] of the same substance?
Its Tm is 56.5 °C.

Source: patent publication US20160331662A1, “Compositions that Inhibit and Prevent the Formation of Dental Caries and Methods of Using the Same” (priority 2014, published 2016)
